The values that follow come from patent US4820804A, “Analogs of [1,7-di-alanine, des-19-leucine]calcitonin” (Rorer Pharmaceutical Corporation, priority 1987, dated 1989).

Residues, ends and D or L forms follow the SMILES beside them. *: point of attachment. Propionyl = CCC(=O)*

Experiment [1] has as its system serum calcium concentration. The conditions noted are these: rat, in vivo, sc.
Method: SCT and synthetic salmon calcitonin standard. Rats were divided into four groups of seven animals, and each group was assigned at random to a dose of standard or test solution. Low and high doses were chosen from the linear portion of the dose-response curve. For the salmon calcitonin standard, the values were 0.7 and 2.1 mcg. peptide/100 g. BW. Peptides were given by subcutaneous injection (0.2 ml/100 g. BW) and blood was withdrawn 1 hour later for serum calcium determination. Sera are processed and analyzed within two hours of collection. Results were analyzed within two hours of collection.
The nature of experiment [2]: Independent determination of the potency of the standard salmon calcitonin. The conditions noted are these: standard used in the rat assay, independently determined. As to the method: The biological potency of [N-alpha-Propionyl-1,7-Di-Ala,Des-19-Leu] salmon calcitonin was determined by comparing the reduction of serum calcium concentration which followed administration by graded doses of [N-alpha-Propionyl-1,7-Di-Ala,Des-19-Leu] SCT and synthetic salmon calcitonin standard. Rats were divided into four groups of seven animals, and each group was assigned at random to a dose of standard or test solution. Low and high doses were chosen from the linear portion of the dose-response curve. For the salmon calcitonin standard, the values were 0.7 and 2.1 mcg. peptide/100 g. BW. Peptides were given by subcutaneous injection (0.2 ml/100 g. BW) and blood was withdrawn 1 hour later for serum calcium determination. Sera are processed and analyzed within two hours of collection. […]. Results were analyzed by a 2×2 parallel line assay [Gaddum, J. H., J. Pharm. Pharmacol., 6, 345 (1953)]. The standard salmon calcitonin used was independently determined to contain greater than 4,000 IU/mg.

As to `CCC(=O)N[C@@H](CO)C(=O)N[C@@H](CC(N)=O)C(=O)N[C@@H](CC(C)C)C(=O)N[C@@H](CO)C(=O)N[C@H](C(=O)N[C@@H](C)C(=O)N[C@H](C(=O)N[C@@H](CC(C)C)C(=O)NCC(=O)N[C@@H](CCCCN)C(=O)N[C@@H](CC(C)C)C(=O)N[C@@H](CO)C(=O)N[C@@H](CCC(N)=O)C(=O)N[C@@H](CCC(=O)O)C(=O)N[C@@H](CC(C)C)C(=O)N[C@@H](Cc1c[nH]cn1)C(=O)N[C@@H](CCCCN)C(=O)N[C@@H](CCC(N)=O)C(=O)N[C@H](C(=O)N[C@@H](Cc1ccc(O)cc1)C(=O)N1CCC[C@H]1C(=O)N[C@@H](CCCNC(=N)N)C(=O)N[C@H](C(=O)N[C@@H](CC(N)=O)C(=O)N[C@H](C(=O)NCC(=O)N[C@@H](CO)C(=O)NCC(=O)N[C@H](C(=O)N1CCC[C@H]1C(N)=O)[C@@H](C)O)[C@@H](C)O)[C@@H](C)O)[C@@H](C)O)C(C)C)[C@@H](C)O` [Des-1-Amino] (Propionyl-SNLSTAVLGKLSQELHKQTYPRTNTGSGTP-NH2), the Potency in experiment [1] worked out at 7300 Iu/mg.

As for `CC(C)C[C@H](NC(=O)[C@H](CCCCN)NC(=O)CNC(=O)[C@H](CC(C)C)NC(=O)[C@@H](NC(=O)[C@H](C)NC(=O)[C@@H](NC(=O)[C@H](CO)NC(=O)[C@H](CC(C)C)NC(=O)[C@H](CC(N)=O)NC(=O)[C@H](CO)NC(=O)[C@H](C)N)[C@@H](C)O)C(C)C)C(=O)N[C@@H](CO)C(=O)N[C@@H](CCC(N)=O)C(=O)N[C@@H](CCC(=O)O)C(=O)N[C@@H](CC(C)C)C(=O)N[C@@H](Cc1c[nH]cn1)C(=O)N[C@@H](CCCCN)C(=O)N[C@@H](CCC(N)=O)C(=O)N[C@H](C(=O)N[C@@H](Cc1ccc(O)cc1)C(=O)N1CCC[C@H]1C(=O)N[C@@H](CCCNC(=N)N)C(=O)N[C@H](C(=O)N[C@@H](CC(N)=O)C(=O)N[C@H](C(=O)NCC(=O)N[C@@H](CO)C(=O)NCC(=O)N[C@H](C(=O)N1CCC[C@H]1C(N)=O)[C@@H](C)O)[C@@H](C)O)[C@@H](C)O)[C@@H](C)O` [Parent, [1,7 Di-Alanine, Des-19-Leucine]Salmon Calcitonin] (H-ASNLSTAVLGKLSQELHKQTYPRTNTGSGTP-NH2), the Potency in experiment [1] is 7400 Iu/mg.

“Salmon calcitonin [standard salmon calcitonin]”: in experiment [2], the “potency content of standard salmon calcitonin” value is listed as “greater than 4,000 IU/mg”.

Turning to `CCC(=O)N[C@@H](C)C(=O)N[C@@H](CO)C(=O)N[C@@H](CC(N)=O)C(=O)N[C@@H](CC(C)C)C(=O)N[C@@H](CO)C(=O)N[C@H](C(=O)N[C@@H](C)C(=O)N[C@H](C(=O)N[C@@H](CC(C)C)C(=O)NCC(=O)N[C@@H](CCCCN)C(=O)N[C@@H](CC(C)C)C(=O)N[C@@H](CO)C(=O)N[C@@H](CCC(N)=O)C(=O)N[C@@H](CCC(=O)O)C(=O)N[C@@H](CC(C)C)C(=O)N[C@@H](Cc1c[nH]cn1)C(=O)N[C@@H](CCCCN)C(=O)N[C@@H](CCC(N)=O)C(=O)N[C@H](C(=O)N[C@@H](Cc1ccc(O)cc1)C(=O)N1CCC[C@H]1C(=O)N[C@@H](CCCNC(=N)N)C(=O)N[C@H](C(=O)N[C@@H](CC(N)=O)C(=O)N[C@H](C(=O)NCC(=O)N[C@@H](CO)C(=O)NCC(=O)N[C@H](C(=O)N1CCC[C@H]1C(N)=O)[C@@H](C)O)[C@@H](C)O)[C@@H](C)O)[C@@H](C)O)C(C)C)[C@@H](C)O` [N--Alpha-Propionyl, [N alpha-Propionyl, 1,7-Di-Alanine, Des-19-Leucine] salmon calcitonin] (Propionyl-ASNLSTAVLGKLSQELHKQTYPRTNTGSGTP-NH2), in experiment [1], the Potency amounted to 7600 Iu/mg.
